{
  "source": "patent US20230241256A1",
  "about": "“NON-INTUITIVE COMBINATION OF DRUG DELIVERY CARRIERS OF THE SAME DRUG FOR SYNERGISTIC GROWTH DELAY OF SOLID TUMORS” (The Johns Hopkins University, priority 2020, published 2023)",
  "key": {"[1]": {"test_system": "Trastuzumab-sensitive BT474 breast cancer cells", "experiment": "Clonogenic (colony) survival, BT474", "assay_type": "cell-based, human", "conditions": "6 hour incubation at 37° C.; pH 7.4 or 6.0; monolayers", "procedure": "(§1) Cold conditions of liposomes and the antibody are indicated at zero radioactivity concentration. Error bars correspond to standard deviations of repeated measurements (4-6 samples per radioactivity concentration);\n(§2) After incubation for 6 hours of cell monolayers with varying concentrations of radioactivity, the cells were washed and were plated in dishes to grow until formation of colonies, as described in detail in Prasad et al., 2021."}, "[2]": {"test_system": "Trastuzumab-resistant BT474-R breast cancer cells", "experiment": "Clonogenic (colony) survival, BT474-R", "assay_type": "cell-based, human", "conditions": "6 hour incubation at 37° C.; pH 7.4 or 6.0; monolayers", "procedure": "as §1, §2"}},
  "data": [
    {"smiles": "O=C([O-])CN1CCN(CC(=O)[O-])CCN(CC(=O)[O-])CCN(CC(=O)[O-])CC1.[225Ac+3]", "note": "[free [^225Ac]Ac-DOTA]", "values": [
      {"measurement": "colony survival response", "setting": "[1]", "result": "same sensitivity"},
      {"measurement": "colony survival response", "setting": "[2]", "result": "same sensitivity"}
    ]}
  ]
}
